Data published in patent US20090221989A1, “SYSTEM AND METHOD FOR THE PREVENTION AND TREATMENT OF BACTERIAL AND FUNGAL INFECTIONS INCLUDING URINARY TRACT INFECTIONS (UTI) USING A HYPOHALOUS ACID COMPOSITION” (Novabay Pharmaceuticals Inc, priority 2005, published 2009).

Tests used:
[1] = test system: urease positive Escherichia coli ATCC 25922 biofilm; test: Biofilm eradication in in vitro urinary catheter flow model; type: cell-based; conditions: for Log (CFU/cm2) / Log reduction: pH 4, 0.9% NaCl; for Log (CFU/cm2): 3-day biofilm, 10 min flow + 30 min stationary, average of 9 treatments; for Log reduction: versus saline
Experimental: A test system was established which utilized size 14 Foley catheters (supplied by NovaCal), which were cut and installed into a pre-sterilized flow system (FIG. 1) using aseptic techniques. The system consists of five parallel channels, one channel per catheter. Sterile medium was supplied to the system via a flow-break, to prevent back-growth into the medium reservoir. The entire system was placed in a 37° C. incubator. After conditioning the system with artificial urine medium for 30 minutes, 2.0 ml inoculum from an overnight culture of urease positive Escherichia coli ATCC 25922 grown in artificial urine medium at 37° C. was introduced into the system via the valve closest to the flow break (bladder side of catheter). Each inoculum was tested to confirm urease production. After inoculation, the system remained under static conditions (no flow) for two hours, to allow for bacterial attachment to the catheters. Flow of artificial urine medium was then initiated and maintained at a rate of 0.75 ml/min for 3 days. Initial experiments were conducted to evaluate consistency of biofilm formation in the model system. […] Day 5 and Day 7 counts remained at approximately that level. It was decided that treatment would be performed on Day 3 to prevent the possibility of biofilm detachment occurring. […] Sterile sections of tubing were attached from the syringe to the valve furthest from the flow break (bag end of the catheter). This end is designated as FRONT for sampling purposes. The pump was turned on and the treatments were introduced at 2.0 ml/min for 10 minutes through the catheters. Excess medium and treatment solution was captured in a waste container. After 10 minutes, the syringe pump was turned off and the solutions were left stationary in the catheters for 30 minutes. The solutions were then withdrawn back through the catheter into the syringe, medium flow was resumed for a 30 minute rinse time and the catheters were then sampled. For efficient sampling: Each catheter was divided into 3 segments (front, middle, end) and each segment was subsampled. One subsample was used to determine bacterial populations by plate count, another subsample was analyzed by staining with the LIVE/DEAD® BaclightTM bacterial viability kit ([…], Molecular Probes, Oregon, USA) using confocal laser microscopy (CSLM), the third sample was imaged using scanning electron microscopy (SEM). For viable cell counts, a 3.0 centimeter section of tubing was removed and scraped with a sterile stainless steel rod (using aseptic technique) into a tube containing 10.0 ml of sterile phosphate-buffered saline (PBS). The tubes were then sonicated for two minutes and the suspension was vortexed for one minute. The number of viable (culturable) bacteria was enumerated by serial dilution in PBS and plate counts using the spread-plate technique. Results were expressed as CFU/cm^2 and are calculated as follows: The surface area of the internal lumen of the catheter section scraped was determined to be 2.826 cm^2. Three treatment runs were performed on 3 catheters each. One treated with PBS or sterile 0.9% saline as control, one treated with 2 mM HOCl and one treated with 20 mM HOCl. The Log (CFU/cm^2) was calculated from the average of 9 treatments, consisting of 3 treatments of 3 catheter pieces for each Test Article.

[2] = test system: urease positive Escherichia coli ATCC 25922 biofilm; test: Biofilm prevention in in vitro urinary catheter flow model; type: cell-based
Experimental: Day 0: The test system, as described in detail above, utilized size 14 Foley catheters, cut and installed into a pre-sterilized flow system using aseptic techniques. Sterile medium was supplied to the system via a flow-break, to prevent back-growth into the medium reservoir. The entire system was placed into a 37 AC incubator. After conditioning the system with artificial urine medium for 30 minutes, each catheter was treated with a disinfectant. 20.0 ml of each treatment solution was loaded into 30 ml syringes and connected to a syringe pump. Sterile sections of tubing were attached from the syringe to the valve furthest from the flow break (bag end of the catheter). This end is designated as FRONT for sampling purposes. The pump was turned on and the treatments were introduced at 2.0 ml/min for 10 minutes through the catheters. Excess medium and treatment solution was captured in a waste container. After 10 minutes, the syringe pump was turned off and the solutions were left stationary in the catheters for 30 minutes. The solutions were then withdrawn back through the catheter into the syringe. The catheters were then rinsed with sterile medium for 30 minutes. On Day 0 only: An inoculum from an overnight culture of urease positive Escherichia coli ATCC 25922 grown in artificial urine medium at 37° C. was introduced into the system via the valve closest to the flow break (bladder side of catheter). Each inoculum was tested for confirmation of urease production. After inoculation, the system remained under static conditions (no flow) for two hours, to allow for bacterial attachment to the catheters. Flow of artificial urine medium was then initiated and maintained at a rate of 0.75 ml/min. Days 1, 3 and 5: For viable cell counts, a 3.0 centimeter section of tubing was removed and scraped with a sterile stainless steel rod (using aseptic technique) into a tube containing 10.0 ml of sterile PBS. The tubes were then sonicated for two minutes and the suspension was vortexed for one minute. The number of viable (culturable) bacteria was enumerated by serial dilution in PBS and plate counts using the spread-plate technique. Results are expressed as CFU/cm^2 and were calculated as described in Phase One. Days 1 and 3: After sampling, the catheters were disinfected and rinsed with sterile medium as described above. Days 2 and 4: the catheters were disinfected and rinsed with sterile medium as described above. No samples were taken. Day 5: Samples were taken for imaging and both ends of the catheter were sampled for viable cell count data.

[3] = test system: Proteus mirabilis ATCC 29245 biofilm; test: Biofilm disinfection on 1-cm Foley catheter pieces, plate count; type: cell-based; conditions: HOCl 2 mM in 0.9% saline pH 3.5, 48 h biofilm
Experimental: (§1) We have devised a dynamic in vitro model using traditional microbiological methods to assess the antimicrobial efficacy of 2 mM HOCl in 0.9% saline at pH 3.5, as compared to physiological saline in disinfecting intra-luminal and extra-luminal indwelling Foley catheter.
(§2) Foley Catheter, manufactured by BARD HOCl (2 mM) in 0.9% saline pH 3.5 (150 mM) Escherichia coli ATCC 25922 Proteus mirabilis ATCC 29245
(§3) Neutralizer Broth: A broth containing dextrose, lecithin, sodium thiosulfate, pancreatic digest of casein, Tween® 80, yeast extract, sodium bisulfate, sodium thioglycollate, monopotassium phosphate, and bromcresol purple.
(§4) The ability of HOCl to destroy biofilm formation was evaluated as follows. First, biofilm was established on 1-cm-long pieces of catheter for 48 hours in nutrient broth in the presence of either Proteus mirabilis or Escherichia coli. Subsequently, the biofilm-bearing pieces of catheter were exposed to 2 mM HOCl in 0.9% saline at pH 3.5 over various periods of time. After the exposures the pieces of catheter were transferred into 1 mL of neutralizer broth to stop the reaction. 0.1 mL (10%) of the neutralizer broth was then plated out onto nutrient agar and the number of colonies was counted. The CFU (Colony Forming Unit) values obtained were multiplied by 10 to obtain the actual CFU/mL values per treated sample.

[4] = test system: Escherichia coli ATCC 25922 biofilm; test: as above; type: cell-based; conditions: HOCl 2 mM in 0.9% saline pH 3.5, 48 h biofilm
Experimental: as §1, §2, §3, §4

[5] = test system: E. coli and Pr. mirabilis biofilm; test: Biofilm disinfection on Foley catheter pieces, both organisms pooled: re-culture OD600, overall CFU, visual examination; type: cell-based, Escherichia coli; Proteus mirabilis; conditions: HOCl 2 mM in 0.9% saline pH 3.5
Experimental: as §4, with “sample. In order to measure the amount of live bacteria left on the pieces of catheter following treatment, the biofilm-bearing pieces of catheter were transferred into tubes containing fresh growth medium. After allowing growth in a shaker at 37° C. for 4 hours, Optical Density (OD) was read at 600 nm. […] This was also shown by very low optical density readings (average of 0.057 OD600 units, individual data not listed) following the attempt to re-culture the bacteria from treated catheters.” for “sample.”

[6] = test system: viable (culturable) bacteria on patient catheter; test: Ex-vivo treatment of a patient Foley catheter, viable plate counts; type: cell-based
From the text: A Foley catheter was removed from a patient by hospital personnel and placed in a sterile bag. In the Bozeman Deaconess Hospital (BDH) lab, the outside of the catheter was wiped down with 70% ethanol. Then the catheter was aseptically cut into 3 catheter portions (bag-end, middle and patient-end). Each portion was cut into 3.0 cm long sections using a ruler and razor blades.
Three of the sections (one bag-end, one middle and one patient-end) designated as control were placed into sterile PBS. Three of the sections (one bag-end, one middle and one patient-end) were placed in 20 mM HOCl. All catheter sections were treated for 30 minutes individually in sterile glass tubes, each with sufficient solution to be immersed completely. After treatment, each 3 cm section was removed from the treatment tubes and the PBS control tubes and placed into a second glass tube containing sterile PBS for a 2 minute rinse in order to remove the treatment solution. The section was then removed from the tube and aseptically cut into 1.0 cm and 2.0 cm pieces. The 2.0 cm piece was placed in a tube containing 10 ml of sterile PBS, vortexed, sonicated and diluted for viable plate counts. The number of viable (culturable) bacteria was enumerated by serial dilution in PBS and plate counts using the spread-plate technique. Samples were plated on blood agar plates. Results will be expressed as colony-forming units/cm^2, CFU/cm^2 (calculated as 2.0 cm length×0.25 cm (radius)×3.14 (pi)=1.57 cm^2). The 1.0 cm piece was placed in 4% formaldehyde solution.

[7] = HOCl 20 mM, pH 4, 0.9% NaCl, 30 minutes immersion

With `OCl` [HOCl, hypochlorous acid] the “Log (CFU/cm2)” value ([1]; HOCl 2 mM) was 4.8 Log (CFU/cm2), the “Log reduction” value ([1]; HOCl 2 mM) was −4.3 and the “bacterial removal, higher versus lower concentration” value ([1]; HOCl 20 mM versus 2 mM) was “significantly more bacterial removal than the lower concentration”. For the same molecule, the “Log (CFU/cm2)” value ([1]; HOCl 20 mM) was 2.5 Log (CFU/cm2), the “Log reduction” value ([1]; HOCl 20 mM) was −6.6 and the “bacterial counts and presence of biofilm (visual interpretation from images)” value ([1]; HOCl at 2 mM and 20 mM) was “significantly reduced bacterial counts and the presence of biofilm”. The “inhibition of biofilm formation” value ([2]; 5 day duration, 20 mM) was “appeared to inhibit biofilm formation”, the “viable cell count Day 1” value ([2]; Day 1, daily treatment, HOCl 20 mM pH 4 0.9% NaCl, vinegar 1:3 in water, Neomycin 1 ml in 1000 ml saline) was 3.5 CFU/cm^2 and the “viable cell count Day 3” value ([2]; Day 3, daily treatment, HOCl 20 mM pH 4 0.9% NaCl, vinegar 1:3 in water, Neomycin 1 ml in 1000 ml saline) was 0.0 CFU/cm^2. For the same molecule, the “viable cell count Day 5 “Front” (bag end)” value ([2]; Day 5, bag end, daily treatment, HOCl 20 mM pH 4 0.9% NaCl, vinegar 1:3 in water, Neomycin 1 ml in 1000 ml saline) was 0.0 CFU/cm^2, the “viable cell count Day 5 “End” (bladder end)” value ([2]; Day 5, bladder end, daily treatment, HOCl 20 mM pH 4 0.9% NaCl, vinegar 1:3 in water, Neomycin 1 ml in 1000 ml saline) was 0.0 CFU/cm^2 and the “inhibition of biofilm formation compared to vinegar and Neosporin” value ([2]; especially by Day 5, 20 mM) was “significantly better at inhibiting biofilm formation”. It also gave a CFU/mL ([3]; exposure 5 min) of 110 CFU/mL, a CFU/mL ([3]; exposure 10 min) of 40 CFU/mL and a CFU/mL ([3]; exposure 20 min) of 50 CFU/mL. For the same molecule, the CFU/mL ([3]; exposure 30 min) was 0 CFU/mL, the CFU/mL ([3]; exposure 45 min) was 20 CFU/mL and the CFU/mL ([3]; exposure 60 min) was 0 CFU/mL. The CFU/mL ([3]; exposure 120 min) was 90 CFU/mL, the CFU/mL ([3]; exposure <1 min) was >>3000 CFU/mL and the CFU/mL ([4]; exposure 5 min) was 460 CFU/mL. For the same molecule, the CFU/mL ([4]; exposure 10 min) was 0 CFU/mL, the CFU/mL ([4]; exposure 20 min) was 0 CFU/mL and the CFU/mL ([4]; exposure 30 min) was 0 CFU/mL. The CFU/mL ([4]; exposure 45 min) was 0 CFU/mL, the CFU/mL ([4]; exposure 60 min) was 0 CFU/mL and the CFU/mL ([4]; exposure 120 min) was 0 CFU/mL. The CFU/mL ([4]; exposure <1 min) was 50 CFU/mL, the “visual examination of biofilm on catheter surface” value [5] was “subsequent removal” and the “optical density readings after re-culture of treated catheters (average)” value ([5]; 4 h growth at 37° C. in fresh medium, average, individual data not listed) was 0.057 OD600 units. For the same molecule, the “recoverable CFU/mL bacteria” value ([5]; catheters infected 48 hours) was “minimal recoverable CFU/mL bacteria”, the Log reduction ([6]; HOCl 20 mM versus sterile PBS, average of 3 pieces) was 2.4 and the “Average Log CFU/cm^2 on catheter section after treatment, Bag end” value [6, 7] was 0.50 Log CFU/cm^2. For the same molecule, the “Average Log CFU/cm^2 on catheter section after treatment, average 3 pieces” value [6, 7] was 0.53 Log CFU/cm^2, the “Average Log CFU/cm^2 on catheter section after treatment, middle” value [6, 7] was 0.58 Log CFU/cm^2 and the “Average Log CFU/cm^2 on catheter section after treatment, patient end” value [6, 7] was 0.50 Log CFU/cm^2.
